Measured values reported in US8048899B2, “Compounds which selectively modulate the CB2 receptor” (Boehringer Ingelheim International GmbH, priority 2008, dated 2011).

How the values were obtained:
human CB2R = molecular target: T1, human CB2R (Homo sapiens, UniProt P34972); test: CB2R mediated modulation of cAMP synthesis; format: cell-based; details: CHO cells expressing human CB2R; inhibition of forskolin-stimulated cAMP synthesis; read-out: CB2 EC50
T1 construct: host or cells: CHO cells
Description: B. CB2R Mediated Modulation of cAMP Synthesis:
Compounds of the invention are evaluated for their CB2 agonist or inverse agonistic activity in accordance with the following experimental method.
(§1) CHO cells expressing human CB2R (Euroscreen) are plated at a density of 5000 cells per well in 384 well plates and incubated overnight at 37° C. After removing the media, the cells are treated with test compounds diluted in stimulation buffer containing 1 mM IBMX, 0.25% BSA and 10 uM Forskolin. The assay is incubated for 30 minutes at 37° C. Cells are lysed and the cAMP concentration is measured using DiscoverX-XS cAMP kit, following the manufacturer's protocol. In this setting, agonists will decrease forskolin induced production of cAMP while inverse agonists will further increase forskolin induced production of cAMP. EC50 of agonists are calculated as follows. The maximal amount of cAMP produced by forskolin compared to the level of cAMP inhibited by 1 uM CP55940 is defined as 100%. […] Data is analyzed using a four-parameter logistic model. (Model 205 of XLfit 4.0).

human CB1R = molecular target: T2, human CB1R (Homo sapiens, UniProt P21554); test: CB1R mediated modulation of cAMP synthesis; format: cell-based; details: CHO cells expressing human CB1R; inhibition of forskolin-stimulated cAMP synthesis; read-out: CB1 EC50
T2 construct: host or cells: CHO cells
T2 sequence (P21554 whole entry): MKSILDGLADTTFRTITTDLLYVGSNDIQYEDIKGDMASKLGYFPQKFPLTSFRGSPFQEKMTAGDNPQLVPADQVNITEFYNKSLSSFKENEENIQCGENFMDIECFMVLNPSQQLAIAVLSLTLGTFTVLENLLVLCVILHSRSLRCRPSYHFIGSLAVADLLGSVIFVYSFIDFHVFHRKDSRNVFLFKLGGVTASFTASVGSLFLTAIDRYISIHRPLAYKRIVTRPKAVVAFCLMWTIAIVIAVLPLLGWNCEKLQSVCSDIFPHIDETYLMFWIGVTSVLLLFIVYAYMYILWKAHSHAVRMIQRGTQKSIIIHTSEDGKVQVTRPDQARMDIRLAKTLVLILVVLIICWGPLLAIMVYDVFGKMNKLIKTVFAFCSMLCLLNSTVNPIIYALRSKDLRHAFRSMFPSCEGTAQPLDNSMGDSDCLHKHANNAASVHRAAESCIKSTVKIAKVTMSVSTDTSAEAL
Description: C. CB1R Mediated Modulation of cAMP Synthesis:
Compounds of the invention are evaluated for their CB1 agonist or inverse agonistic activity in accordance with the following experimental method.
as §1, with “CB1R” for “CB2R”

T1 sequence (P34972 whole entry): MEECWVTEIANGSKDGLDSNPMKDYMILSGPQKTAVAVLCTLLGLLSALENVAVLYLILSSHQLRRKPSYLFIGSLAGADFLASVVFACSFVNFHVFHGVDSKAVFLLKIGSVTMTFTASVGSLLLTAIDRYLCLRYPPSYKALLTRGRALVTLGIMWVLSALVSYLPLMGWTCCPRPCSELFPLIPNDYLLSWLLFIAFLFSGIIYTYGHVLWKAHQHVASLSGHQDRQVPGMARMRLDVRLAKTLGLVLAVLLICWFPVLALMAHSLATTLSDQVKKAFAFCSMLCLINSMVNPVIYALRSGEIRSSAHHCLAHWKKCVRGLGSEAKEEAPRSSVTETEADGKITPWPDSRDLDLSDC

Row | Structure (SMILES) | EC50 (human CB2R) [nM] | EC50 (human CB1R) [µM]
1 | CC(C)(CO)c1cc(NC(=O)C(C)(C)S(=O)(=O)CC2CCOCC2)on1 | 39 | > 50
2 | CC(C)(CO)c1cc(NC(=O)C(C)(C)S(=O)(=O)CCCC(F)(F)F)on1 | 15 | > 20
3 | COc1ccc(-c2nnc(NC(=O)C(C)(C)S(=O)(=O)CC3(C)CCOCC3)[nH]2)cc1 | 186 | > 20
4 | CC(C)(C(=O)Nc1nnc(-c2ccc(OC(F)(F)F)cc2)[nH]1)S(=O)(=O)CC1CCOCC1 | 337 | > 20
5 | CC(C)(C(=O)Nc1nnc(-c2ccc(OC(F)(F)F)cc2)[nH]1)S(=O)(=O)C1CCOCC1 | 194 | > 20
6 | CC(C)(CO)c1cc(NC(=O)C(C)(C)S(=O)(=O)c2cccc(F)c2F)on1 | 172 | > 20
7 | CCOc1ccc(-c2nnc(NC(=O)C(C)(C)S(=O)(=O)C3CCOCC3)[nH]2)cc1 | 208 | > 50
8 | CC(C)(CO)c1cc(NC(=O)C(C)(C)S(=O)(=O)CC2CCOCC2)no1 | 208 | > 50
9 | CC(C)(C(=O)Nc1cc(C2(CO)CC2)no1)S(=O)(=O)C1CCOCC1 | 117 | > 50
10 | COCC(C)(C)c1cc(NC(=O)C(C)(C)S(=O)(=O)CC2CCOCC2)no1 | 137 | > 20
11 | CC(C)(C(=O)Nc1cc(C2(CO)CC2)no1)S(=O)(=O)CCCC(F)(F)F | 247 | > 50
12 | COCC(C)(C)c1cc(NC(=O)C(C)(C)S(=O)(=O)CC2CC2)on1 | 120 | > 50
13 | CC(C)(CO)c1cc(NC(=O)C2(S(=O)(=O)C3CCOCC3)CCC2)on1 | 212 | > 50
14 | CC(C)(C(=O)Nc1nc(-c2cccc(O)c2)n[nH]1)S(=O)(=O)CC1CC1 | 283 | > 50
15 | CC(C)(C(=O)Nc1nc(-c2cccc(O)c2)n[nH]1)S(=O)(=O)C1CCOCC1 | 130 | > 50
16 | CC[C@H](C)S(=O)(=O)C(C)(C)C(=O)Nc1cc(C(C)(C)CO)no1 | 118 | > 50
